The text below walks through data of US12070505B2, “Targeted peptide-drug conjugates” (priority 2021, dated 2024).

Data set [1] has as its system MDA-MB-231 cells. Description: MTS cytotoxicity assay of [(WR)8WKβA]-Dox, MDA-MB-231. The note with it: 5 μM. How it is done:
Cytotoxic activity of the synthesized conjugate and noncovalent mixtures of cyclic [WR]9+Dox was determined in SK-OV-3, MDA-MB-231, MCF-7, MES-SA/MX2, and H9C2 cells. […] An appropriate growth medium was used for each cell line (for SK-OV-3: McCoy's […] with L-glutamine containing fetal bovine serum (FBS) (10%) and penicillin or streptomycin (1%); for MDA-MB-231 and MCF-7 cells: DMEM/F12 (1:1) (1×) with L-Glutamine and 15 mM HEPES containing FBS (10%) and penicillin or streptomycin (1%), and for MES-SA/MX2 and H9C2 cells: Minimum Essential Medium Eagle with Earle's salts and sodium bicarbonate, without L-glutamine containing FBS (10%), and penicillin or streptomycin (1%)). The cells were seeded in a complete growth medium 24 h prior to the experiment. […] The incubation was continued for 3 h.

In data set [2] the test system is CCRF-CEM cells. Description: Cytotoxicity, MTS cell viability assay, CCRF-CEM. The note with it: 5 μM. (Formazan colour is commonly taken as a measure of viable cells.)
Experimental: In Vitro Cytotoxicity Assay of Peptide-Drug Conjugates. […] In brief, CCRF-CEM cells were seeded at 50,000 cells in 0.1 mL per well in 98-well plates. In the case of other cell lines, the cells were seeded at 5,000 cells (0.1 mL per well in 96-well plates). […] Dox (5 μM) was used as a positive control, while water and cell culture medium were used as negative controls. The compounds were dissolved in water; water was used as a negative control to normalize the data. After the incubation period, MTS reagent (20 μL) was added to each well. The incubation was continued for 2 h. Cell viability was then determined by determination of the fluorescence intensity at 490 nm using a SpectraMax M2 microplate spectrophotometer. The percentage of cell viability was then calculated using the following equation: [(OD value of cells treated with the compound)−(OD value of culture medium)]/[(OD value of control cells)−(OD value of culture medium)]×100% (FIGS. 6-9).
In data set [3] the test system is LLC-PK1 kidney cells. Description: Cytotoxicity, MTS assay, normal kidney cells. The note with it: 5 μM.
Experimental: In Vitro Cytotoxicity Assay of Peptide-Drug Conjugates. The cytotoxicity of the compounds was determined by using human leukemia cell line (CCRF-CEM), human ovarian adenocarcinoma cells (SKOV-3) cells, kidney cell line (LLC-PK1), gastric adenocarcinoma cells (AGS), and heart/myocardium cells (H9C2) to evaluate the toxicity of the generated peptides according to a previously reported procedure (Rahman, A.; et al. Proc. Am. Assoc. Cancer Res. 26:2295-2299, 1985, which is incorporated herein by reference). In brief, CCRF-CEM cells were seeded at 50,000 cells in 0.1 mL per well in 98-well plates. In the case of other cell lines, the cells were seeded at 5,000 cells (0.1 mL per well in 96-well plates). The cells were seeded in medium (RPMI-1640 containing FBS (10%)), 24 h prior to the experiment. The compounds at different concentrations (10-50 μM) were added to each well in triplicate and incubated for 24 and 72 h at 37° C. in a humidified atmosphere of 5% CO2. Dox (5 μM) was used as a positive control, while water and cell culture medium were used as negative controls. The compounds were dissolved in water; water was used as a negative control to normalize the data. After the incubation period, MTS reagent (20 μL) was added to each well. The incubation was continued for 2 h. Cell viability was then determined by determination of the fluorescence intensity at 490 nm using a SpectraMax M2 microplate spectrophotometer.
Data set [4] deals with MDA-231R cells. Description: LC50 by CCK-8 assay, Dox-resistant MDA-231R. It is filed as cell-based. Here is the method:
Dox-resistant Cell Lines. Acquired resistance to Dox was induced in wild-type triple-negative breast cancer cell line MDA-MB-231 (MDA-231WT) as described before (Aliabadi, H. M.; et al. J. Control. Release 172:219-228, 2013, which is incorporated herein by reference). Briefly, MDA-231WT cells were exposed to Dox at an initial concentration of 0.05 μg/mL for one week or three consecutive expansions (whichever came later). […] Resistance induction was confirmed via calculation of LC50 following a sigmoidal effect model explained elsewhere (Bousoik, E.; et al. Front. Oncol. 9:1070, 2019, which is incorporated herein by reference) and determination of P-glycoprotein (P-gp) expression.
The cytotoxicity of the peptide-Dox conjugate in resistant triple-negative breast cancer and uterine sarcoma cell lines (MDA-231R, MDA-231WT, and MES-SA/MX2) was evaluated by a Cell Counting 8 (CCK8) KIT. The peptide-Dox conjugate was added to the cells in triplicate with different concentrations (0-40 μM). Cells were incubated at 37° C. and 5% CO2 for 24 h. After this incubation period, 10 μL of CCK8 reagent was added to each well, and plates were incubated at the same conditions for 2 h. The absorbance of each well was determined at 450 nm using the SpectraMAX M5 microplate reader. After subtracting the signal from blank wells that contain medium without cells in the plate with CCK-8 solution added, the results were normalized to cells treated with normal saline (considered as 100%)
Efficiency in Dox-Resistant Cells. In order to compare the cytotoxic effect of free and peptide-conjugated Dox in Dox-resistant cells, MDA-231WT (as a Dox-sensitive cell line as control) and MDA-231R and MES-SA/MX2 cells as Dox-resistant cells were exposed to a wide range of Dox (or Dox-equivalent for the peptide-conjugated drug) concentrations (0.05-40 μM). Cells were seeded in 96-well plates with approximately 50% confluency and were incubated for 24 h in 37° C. and 5% CO2. […] The cell viability was determined after this incubation period using the CCK-8 assay, as explained above. […]

Where “and” joins values, the source holds several entries; their conditions need not be identical. Equal values may be shown once.

Take `COc1cccc2c1C(=O)c1c(O)c3c(c(O)c1C2=O)C[C@@](O)(C(=O)CO)C[C@@H]3O[C@H]1C[C@H](N)[C@H](O)[C@H](C)O1` [Dox, doxorubicin, reference compound]: the cell viability (commonly a read-out of living cells in per cent, often relative to untreated cells) is listed as 79% in data set [1] (24 h) and 37% in data set [1] (72 h). Besides, in data set [1] (72 h), the “inhibition of cell viability/proliferation” value was determined as 63%. Moreover, the “Cell Viability (%) after 24 h” value in data set [2] is 48 ± 2%; in data set [3] (normal kidney LLC-PK1), 44 ± 0% and 48 ± 2%. Moreover, the “Cell Viability (%) after 72 h” value in data set [2] stood at 15 ± 3%. Further, the “reduction of cell survival/viability” value in data set [2] (24 h) is on record as 52%; in data set [2] (72 h), 85%. The “reduction of cell survival” value in data set [3] (LLC-PK1, 24 h) was found to be 64%; in data set [3] (LLC-PK1, 72 h), 77%. In addition, the “reduction of viability of kidney cells” value in data set [3] (LLC-PK1, time not stated) was 85%. Also, the CC50 (usually the concentration that lowers cell viability or growth by half) in data set [4] (MDA-231R (Dox-resistant), FIG. 10: after 72 h) came to 36 µM. The “LC50 in MDA-MB-231R cells, times higher than the naïve cells” value in data set [4] (resistance induction) is listed as “more than 50 times”.
